Legend:
Type in all cases: in vivo
Conditions in all cases: treatment dosage 320 g/ha
barnyard grass [1] = experiment: Test Example 1: weedkilling efficacy, preemergent weed treatment in the submerged state; A: barnyard grass
In short: (§1)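 Pots of alluvial soil flooded 4 cm deep, sown with barnyard grass, bulrush and oval-leafed pondweed and transplanted with 2.5-leaf rice. Emulsified compound applied to the water surface on sowing day at stated g/ha; greenhouse 25–30 °C, effects assessed 3 weeks after treatment.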

bulrush [2] = experiment: Test Example 1: weedkilling efficacy, preemergent weed treatment in the submerged state; B: bulrush
In short: as §1

oval-leafed pondweed [3] = experiment: Test Example 1: weedkilling efficacy, preemergent weed treatment in the submerged state; C: oval-leafed pondweed
In short: as §1

transplanted rice = experiment: Test Example 1: preemergent weed treatment in the submerged state, effect on crop; a: transplanted rice
In short: as §1

barnyard grass [4] = experiment: Test Example 2: weedkilling efficacy, growth period weed treatment in the submerged state; A: barnyard grass
In short: (§2)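 Barnyard grass, bulrush and oval-leafed pondweed sown in alluvial soil under 4 cm flooding, greenhouse 25 to 30° C. At 1-2 leaf stage, water-diluted emulsion applied to the water surface at stated g/ha dosages; effects scored 3 weeks later.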

bulrush [5] = experiment: Test Example 2: weedkilling efficacy, growth period weed treatment in the submerged state; B: bulrush
In short: as §2

oval-leafed pondweed [6] = experiment: Test Example 2: weedkilling efficacy, growth period weed treatment in the submerged state; C: oval-leafed pondweed
In short: as §2

crabgrass [7] = experiment: Test Example 3: weedkilling efficacy through soil treatment; D: crabgrass
In short: (§3)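 Crop and weed responses were judged three weeks after a uniform surface spray of the water-diluted emulsion at the given g/ha rate. Seeds sat beneath about 1.5 cm of sterilized diluvial soil, and boxes stood in a greenhouse at 25 to 30° C.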

green foxtail [8] = experiment: Test Example 3: weedkilling efficacy through soil treatment; E: green foxtail
In short: as §3

barnyard grass [9] = experiment: Test Example 3: weedkilling efficacy through soil treatment; F: barnyard grass
In short: as §3

wild oat [10] = experiment: Test Example 3: weedkilling efficacy through soil treatment; G: wild oat
In short: as §3

black-grass [11] = experiment: Test Example 3: weedkilling efficacy through soil treatment; H: black-grass
In short: as §3

Italian ryegrass [12] = experiment: Test Example 3: weedkilling efficacy through soil treatment; I: Italian ryegrass
In short: as §3

common wind-grass [13] = experiment: Test Example 3: weedkilling efficacy through soil treatment; J: common wind-grass
In short: as §3

Indian mallow [14] = experiment: Test Example 3: weedkilling efficacy through soil treatment; K: Indian mallow
In short: as §3

redroot pigweed [15] = experiment: Test Example 3: weedkilling efficacy through soil treatment; L: redroot pigweed
In short: as §3

chickweed [16] = experiment: Test Example 3: weedkilling efficacy through soil treatment; N: chickweed
In short: as §3

catchweed [17] = experiment: Test Example 3: weedkilling efficacy through soil treatment; O: catchweed
In short: as §3

birds-eye speedwell [18] = experiment: Test Example 3: weedkilling efficacy through soil treatment; p: birds-eye speedwell
In short: as §3

directly sown rice [19] = experiment: Test Example 3: soil treatment, effect on crop; b: directly sown rice
In short: as §3

corn [20] = experiment: Test Example 3: soil treatment, effect on crop; c: corn
In short: as §3

soybean [21] = experiment: Test Example 3: soil treatment, effect on crop; d: soybean
In short: as §3

wheat [22] = experiment: Test Example 3: soil treatment, effect on crop; e: wheat
In short: as §3

beet [23] = experiment: Test Example 3: soil treatment, effect on crop; f: beet
In short: as §3

rapeseed [24] = experiment: Test Example 3: soil treatment, effect on crop; g: rapeseed
In short: as §3

crabgrass [25] = experiment: Test Example 4: weedkilling efficacy by foliar treatment; D: crabgrass
In short: (§4)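 Seeds are spot-sown into sterilized diluvial soil and covered with about 1.5 cm of soil. After 14 days' greenhouse growth at 25 to 30° C, plants are sprayed on stems and leaves with diluted emulsion at the stated g/ha rate, then scored at 3 weeks.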

green foxtail [26] = experiment: Test Example 4: weedkilling efficacy by foliar treatment; E: green foxtail
In short: as §4

barnyard grass [27] = experiment: Test Example 4: weedkilling efficacy by foliar treatment; F: barnyard grass
In short: as §4

wild oat [28] = experiment: Test Example 4: weedkilling efficacy by foliar treatment; G: wild oat
In short: as §4

black-grass [29] = experiment: Test Example 4: weedkilling efficacy by foliar treatment; H: black-grass
In short: as §4

Italian ryegrass [30] = experiment: Test Example 4: weedkilling efficacy by foliar treatment; I: Italian ryegrass
In short: as §4

common wind-grass [31] = experiment: Test Example 4: weedkilling efficacy by foliar treatment; J: common wind-grass
In short: as §4

Indian mallow [32] = experiment: Test Example 4: weedkilling efficacy by foliar treatment; K: Indian mallow
In short: as §4

redroot pigweed [33] = experiment: Test Example 4: weedkilling efficacy by foliar treatment; L: redroot pigweed
In short: as §4

fig-leafed goosefoot = experiment: Test Example 4: weedkilling efficacy by foliar treatment; M: fig-leafed goosefoot
In short: as §4

chickweed [34] = experiment: Test Example 4: weedkilling efficacy by foliar treatment; N: chickweed
In short: as §4

catchweed [35] = experiment: Test Example 4: weedkilling efficacy by foliar treatment; O: catchweed
In short: as §4

birds-eye speedwell [36] = experiment: Test Example 4: weedkilling efficacy by foliar treatment; p: birds-eye speedwell
In short: as §4

directly sown rice [37] = experiment: Test Example 4: foliar treatment, effect on crop; b: directly sown rice
In short: as §4

corn [38] = experiment: Test Example 4: foliar treatment, effect on crop; c: corn
In short: as §4

soybean [39] = experiment: Test Example 4: foliar treatment, effect on crop; d: soybean
In short: as §4

wheat [40] = experiment: Test Example 4: foliar treatment, effect on crop; e: wheat
In short: as §4

beet [41] = experiment: Test Example 4: foliar treatment, effect on crop; f: beet
In short: as §4

rapeseed [42] = experiment: Test Example 4: foliar treatment, effect on crop; g: rapeseed
In short: as §4

## CCOc1cc(C(F)(F)F)cc(NC(=O)C(C)(C)N2COC(C)=C(c3ccccc3)C2=O)n1 [B-2-50]
Barnyard grass [1]
  A (barnyard grass) weedkilling efficacy grade: 5 (weed kill ratio 90% or more, (practically complete withering))
Bulrush [2]
  B (bulrush) weedkilling efficacy grade: 5 (weed kill ratio 90% or more, (practically complete withering))
oval-leafed pondweed [3]
  C (oval-leafed pondweed) weedkilling efficacy grade: 5 (weed kill ratio 90% or more, (practically complete withering))
Transplanted rice
  a (transplanted rice) effect on crop grade: 0 (weed kill ratio 5% or less (practically no effect))
Barnyard grass [4]
  A (barnyard grass) weedkilling efficacy grade: 5 (weed kill ratio 90% or more, (practically complete withering))
Bulrush [5]
  B (bulrush) weedkilling efficacy grade: 4 (weed kill ratio 70% or more, less than 90%)
oval-leafed pondweed [6]
  C (oval-leafed pondweed) weedkilling efficacy grade: 4 (weed kill ratio 70% or more, less than 90%)
Crabgrass [7]
  D (crabgrass) weedkilling efficacy grade: 5 (weed kill ratio 90% or more, (practically complete withering))
Green foxtail [8]
  E (green foxtail) weedkilling efficacy grade: 5 (weed kill ratio 90% or more, (practically complete withering))
Barnyard grass [9]
  F (barnyard grass) weedkilling efficacy grade: 4 (weed kill ratio 70% or more, less than 90%)
Wild oat [10]
  G (wild oat) weedkilling efficacy grade: 0 (weed kill ratio 5% or less (practically no effect))
black-grass [11]
  H (black-grass) weedkilling efficacy grade: 2 (weed kill ratio 20% or more, less than 40%)
Italian ryegrass [12]
  I (Italian ryegrass) weedkilling efficacy grade: 3 (weed kill ratio 40% or more, less than 70%)
Common wind-grass [13]
  J (common wind-grass) weedkilling efficacy grade: 5 (weed kill ratio 90% or more, (practically complete withering))
Indian mallow [14]
  K (Indian mallow) weedkilling efficacy grade: 0 (weed kill ratio 5% or less (practically no effect))
Redroot pigweed [15]
  L (redroot pigweed) weedkilling efficacy grade: 2 (weed kill ratio 20% or more, less than 40%)
Chickweed [16]
  N (chickweed) weedkilling efficacy grade: 0 (weed kill ratio 5% or less (practically no effect))
Catchweed [17]
  O (catchweed) weedkilling efficacy grade: 0 (weed kill ratio 5% or less (practically no effect))
birds-eye speedwell [18]
  P (birds-eye speedwell) weedkilling efficacy grade: 0 (weed kill ratio 5% or less (practically no effect))
Directly sown rice [19]
  b (directly sown rice) effect on crop grade: 1 (weed kill ratio 5% or more, less than 20%)
Corn [20]
  c (corn) effect on crop grade: 1 (weed kill ratio 5% or more, less than 20%)
Soybean [21]
  d (soybean) effect on crop grade: 0 (weed kill ratio 5% or less (practically no effect))
Wheat [22]
  e (wheat) effect on crop grade: 0 (weed kill ratio 5% or less (practically no effect))
Beet [23]
  f (beet) effect on crop grade: 0 (weed kill ratio 5% or less (practically no effect))
Rapeseed [24]
  g (rapeseed) effect on crop grade: 0 (weed kill ratio 5% or less (practically no effect))
Crabgrass [25]
  D (crabgrass) weedkilling efficacy grade: 2 (weed kill ratio 20% or more, less than 40%)
Green foxtail [26]
  E (green foxtail) weedkilling efficacy grade: 2 (weed kill ratio 20% or more, less than 40%)
Barnyard grass [27]
  F (barnyard grass) weedkilling efficacy grade: 0 (weed kill ratio 5% or less (practically no effect))
Wild oat [28]
  G (wild oat) weedkilling efficacy grade: 0 (weed kill ratio 5% or less (practically no effect))
black-grass [29]
  H (black-grass) weedkilling efficacy grade: 1 (weed kill ratio 5% or more, less than 20%)
Italian ryegrass [30]
  I (Italian ryegrass) weedkilling efficacy grade: 1 (weed kill ratio 5% or more, less than 20%)
Common wind-grass [31]
  J (common wind-grass) weedkilling efficacy grade: 1 (weed kill ratio 5% or more, less than 20%)
Indian mallow [32]
  K (Indian mallow) weedkilling efficacy grade: 1 (weed kill ratio 5% or more, less than 20%)
Redroot pigweed [33]
  L (redroot pigweed) weedkilling efficacy grade: 0 (weed kill ratio 5% or less (practically no effect))
fig-leafed goosefoot
  M (fig-leafed goosefoot) weedkilling efficacy grade: 3 (weed kill ratio 40% or more, less than 70%)
Chickweed [34]
  N (chickweed) weedkilling efficacy grade: 0 (weed kill ratio 5% or less (practically no effect))
Catchweed [35]
  O (catchweed) weedkilling efficacy grade: 0 (weed kill ratio 5% or less (practically no effect))
birds-eye speedwell [36]
  P (birds-eye speedwell) weedkilling efficacy grade: 0 (weed kill ratio 5% or less (practically no effect))
Directly sown rice [37]
  b (directly sown rice) effect on crop grade: 0 (weed kill ratio 5% or less (practically no effect))
Corn [38]
  c (corn) effect on crop grade: 0 (weed kill ratio 5% or less (practically no effect))
Soybean [39]
  d (soybean) effect on crop grade: 0 (weed kill ratio 5% or less (practically no effect))
Wheat [40]
  e (wheat) effect on crop grade: 0 (weed kill ratio 5% or less (practically no effect))
Beet [41]
  f (beet) effect on crop grade: 0 (weed kill ratio 5% or less (practically no effect))
Rapeseed [42]
  g (rapeseed) effect on crop grade: 0 (weed kill ratio 5% or less (practically no effect))

— patent US9738634B2, “Heterocyclic amide compound and herbicide” (SYNGENTA PARTICIPATIONS AG, priority 2013, dated 2017)
